Data taken from ChEMBL document CHEMBL3400005, “Thermodynamic equilibrium solubility measurements in simulated fluids by 96-well plate method in early drug discovery” (Bioorg Med Chem Lett, 2015).
Converted amounts (≈) assume the structure as drawn.

Columns and labels:
physchem [1] = settings: water
physchem [2] = settings: pH 7.4
physchem [3] = settings: pH 1.2
physchem [4] = settings: pH 6.8
physchem [5] = settings: water; remark: listed apart in the source
physchem [6] = settings: PBS, pH 7.4
physchem [7] = settings: pH 1.2; remark: listed apart in the source
physchem [8] = settings: pH 6.8; remark: listed apart in the source
physchem [9] = assay: physchem

| SMILES | solubility thermodynamic at 4 h (physchem [1]) [µM] | solubility thermodynamic at 4 h (physchem [2]; PBS) [µM] | solubility thermodynamic at 4 h (physchem [3]; simulated gastric fluid) [µM] | solubility thermodynamic at 4 h (physchem [4]; simulated intestinal fluid) [µM] | solubility thermodynamic at 24 h (physchem [5]) [µM] | solubility thermodynamic at 24 h (physchem [6]) [µM] | solubility thermodynamic at 24 h (physchem [7]; simulated gastric fluid) [µM] | solubility thermodynamic at 24 h (physchem [8]; simulated intestinal fluid) [µM] | solubility thermodynamic (physchem [9]) [µM] | solubility thermodynamic at 4 h (physchem [2]; buffer) [µM] | solubility thermodynamic at 4 h (physchem [3]; simulated gi fluid) [µM] | solubility thermodynamic at 4 h (physchem [4]; simulated gi fluid) [µM] | solubility thermodynamic at 24 h (physchem [7]; simulated gi fluid) [µM] | solubility thermodynamic at 24 h (physchem [8]; simulated gi fluid) [µM] |
| --- | --- | --- | --- | --- | --- | --- | --- | --- | --- | --- | --- | --- | --- | --- |
| CCCc1nc2c(C)cc(-c3nc4ccccc4n3C)cc2n1Cc1ccc(-c2ccccc2C(=O)O)cc1 | 3.89 (≈ 2 µg/mL) | 7.76 (≈ 3.99 µg/mL) | 38.9 (≈ 20 µg/mL) | 1.95 (≈ 1 µg/mL) | 29.5 (≈ 15.2 µg/mL) | 6.46 (≈ 3.32 µg/mL) | 40.7 (≈ 21 µg/mL) | 2.29 (≈ 1.18 µg/mL) | – | – | – | – | – | – |
| CC(C(=O)[O-])c1ccc(-c2ccccc2)c(F)c1.[Na+] (stereo not given) | 331 | 162 | 33.1 | 4.07 | – | – | – | – | – | – | – | – | – | – |
| CC(=O)N[C@@H](CS)C(=O)O [ACETYLCYSTEINE] | 24.5 (≈ 4.01 µg/mL) | 12.3 (≈ 2.01 µg/mL) | 6.17 (≈ 1.01 µg/mL) | 6.17 (≈ 1.01 µg/mL) | – | – | – | – | – | – | – | – | – | – |
| CCCSc1ccc2nc(NC(=O)OC)[nH]c2c1 [ALBENDAZOLE] | 0.38 (≈ 0.101 µg/mL) | 1.91 (≈ 0.506 µg/mL) | 151 (≈ 40.2 µg/mL) | 1.91 (≈ 0.506 µg/mL) | 0.049 (≈ 0.013 µg/mL) | 12.9 (≈ 3.42 µg/mL) | 204 (≈ 54.2 µg/mL) | 0.759 (≈ 0.201 µg/mL) | 0.49 (≈ 0.13 µg/mL) | – | – | – | – | – |
| CC(C)(C#N)c1cc(Cn2cncn2)cc(C(C)(C)C#N)c1 [ANASTROZOLE] | 0.339 (≈ 0.0994 µg/mL) | 0.339 (≈ 0.0994 µg/mL) | 1.7 (≈ 0.498 µg/mL) | 1.7 (≈ 0.498 µg/mL) | 0.148 (≈ 0.0434 µg/mL) | 0.105 (≈ 0.0307 µg/mL) | 0.178 (≈ 0.0522 µg/mL) | 0.692 (≈ 0.203 µg/mL) | – | – | – | – | – | – |
| CN1C(=N)N(C)/C(=C/c2c[nH]c3ccccc23)C1=O [APLYSINOPSIN] | 31.6 (≈ 8.04 µg/mL) | 56.2 (≈ 14.3 µg/mL) | 79.4 (≈ 20.2 µg/mL) | 0.389 (≈ 0.0989 µg/mL) | – | – | – | – | – | – | – | – | – | – |
| CC(=O)Oc1ccccc1C(=O)O [ASPIRIN] | – | – | – | – | – | – | – | – | – | 5010 (≈ 903 µg/mL) | 3310 (≈ 597 µg/mL) | 2.75 (≈ 0.496 µg/mL) | 1450 (≈ 260 µg/mL) | 3.72 (≈ 0.669 µg/mL) |
| COc1ccc2cc3[n+](cc2c1OC)CCc1cc2c(cc1-3)OCO2.[Cl-] [BERBERINE CHLORIDE] | 214 | 21.4 | 33.9 | 398 | – | – | – | – | 537 | – | – | – | – | – |
| CC(C)=CC[C@H]1C[C@@]23C[C@@H](CC=C(C)C)C(C)(C)[C@@](CC=C(C)C)(C(=O)C(C(=O)c4ccc(O)c(O)c4)=C2OC1(C)C)C3=O [CAMBOGIN] | 0.851 (≈ 0.513 µg/mL) | 0.851 (≈ 0.513 µg/mL) | 0.851 (≈ 0.513 µg/mL) | 0.851 (≈ 0.513 µg/mL) | – | – | – | – | – | – | – | – | – | – |
| CC[C@H]1OC(=O)[C@H](C)[C@@H](O[C@H]2C[C@@](C)(OC)[C@@H](O)[C@H](C)O2)[C@H](C)[C@@H](O[C@@H]2O[C@H](C)C[C@H](N(C)C)[C@H]2O)[C@](C)(OC)C[C@@H](C)C(=O)[C@H](C)[C@@H](O)[C@]1(C)O [CLARITHROMYCIN] | 0.676 (≈ 0.506 µg/mL) | 0.676 (≈ 0.506 µg/mL) | 0.676 (≈ 0.506 µg/mL) | 1.35 (≈ 1.01 µg/mL) | – | – | – | – | 0.0447 (≈ 0.0334 µg/mL) | – | – | – | – | – |
| Clc1ccccc1C(c1ccccc1)(c1ccccc1)n1ccnc1 [CLOTRIMAZOLE] | 10 (≈ 3.45 µg/mL) | 11.5 (≈ 3.96 µg/mL) | 5.75 (≈ 1.98 µg/mL) | 0.288 (≈ 0.0995 µg/mL) | – | – | – | – | – | – | – | – | – | – |
| CC(/C=C/C=C(\C)C(=O)O[C@@H]1O[C@H](CO[C@@H]2O[C@H](CO)[C@@H](O)[C@H](O)[C@H]2O)[C@@H](O)[C@H](O)[C@H]1O)=C\C=C\C=C(C)\C=C\C=C(/C)C(=O)O[C@@H]1O[C@H](CO[C@@H]2O[C@H](CO)[C@@H](O)[C@H](O)[C@H]2O)[C@@H](O)[C@H](O)[C@H]1O [CROCIN] | 155 (≈ 151 µg/mL) | 155 (≈ 151 µg/mL) | 155 (≈ 151 µg/mL) | 155 (≈ 151 µg/mL) | – | – | – | – | – | – | – | – | – | – |
| CC(=O)O[C@@]12CO[C@@H]1C[C@H](O)[C@@]1(C)C(=O)[C@H](O)C3=C(C)[C@@H](OC(=O)[C@H](O)[C@@H](NC(=O)OC(C)(C)C)c4ccccc4)C[C@@](O)([C@@H](OC(=O)c4ccccc4)[C@H]21)C3(C)C.O.O.O [DOCETAXEL] | 5.37 | 2.45 | 0.617 | 1.23 | – | – | – | – | 0.871 | – | – | – | – | – |
| CCCCCCCCCCCC1=C(O)C(=O)C=C(O)C1=O [EMBELIN] | 1.7 (≈ 0.5 µg/mL) | 1.7 (≈ 0.5 µg/mL) | 1.7 (≈ 0.5 µg/mL) | 1.7 (≈ 0.5 µg/mL) | – | – | – | – | 1.02 (≈ 0.301 µg/mL) | – | – | – | – | – |
| C=C(C)[C@@H](CC=C(C)C)C[C@@]12C[C@@H](CC=C(C)C)C(C)(C)[C@@](CC=C(C)C)(C(=O)C(C(=O)c3ccc(O)c(O)c3)=C1O)C2=O [GARCINOL] | 1.66 (≈ 1 µg/mL) | 1.66 (≈ 1 µg/mL) | 0.832 (≈ 0.501 µg/mL) | 6.61 (≈ 3.98 µg/mL) | – | – | – | – | – | – | – | – | – | – |
| NNC(=O)c1ccncc1 [ISONIAZID] | 589 (≈ 80.8 µg/mL) | 589 (≈ 80.8 µg/mL) | 589 (≈ 80.8 µg/mL) | 288 (≈ 39.6 µg/mL) | – | – | – | – | – | – | – | – | – | – |

Continued, values first:

| solubility thermodynamic at 4 h (physchem [1]) [µM] | solubility thermodynamic at 4 h (physchem [2]; PBS) [µM] | solubility thermodynamic at 4 h (physchem [3]; simulated gastric fluid) [µM] | solubility thermodynamic at 4 h (physchem [4]; simulated intestinal fluid) [µM] | solubility thermodynamic at 24 h (physchem [5]) [µM] | solubility thermodynamic at 24 h (physchem [6]) [µM] | solubility thermodynamic at 24 h (physchem [7]; simulated gastric fluid) [µM] | solubility thermodynamic at 24 h (physchem [8]; simulated intestinal fluid) [µM] | solubility thermodynamic (physchem [9]) [µM] | solubility thermodynamic at 4 h (physchem [2]; buffer) [µM] | solubility thermodynamic at 4 h (physchem [3]; simulated gi fluid) [µM] | solubility thermodynamic at 4 h (physchem [4]; simulated gi fluid) [µM] | solubility thermodynamic at 24 h (physchem [7]; simulated gi fluid) [µM] | solubility thermodynamic at 24 h (physchem [8]; simulated gi fluid) [µM] | SMILES |
| --- | --- | --- | --- | --- | --- | --- | --- | --- | --- | --- | --- | --- | --- | --- |
| 47.9 (≈ 20.2 µg/mL) | 47.9 (≈ 20.2 µg/mL) | 19.1 (≈ 8.05 µg/mL) | 19.1 (≈ 8.05 µg/mL) | – | – | – | – | – | – | – | – | – | – | O=c1c2cc(O)c(O)cc2oc2cc(O)c([C@@H]3O[C@H](CO)[C@@H](O)[C@H](O)[C@H]3O)c(O)c12 [MANGIFERIN] |
| 229 (≈ 79.1 µg/mL) | 229 (≈ 79.1 µg/mL) | 437 (≈ 151 µg/mL) | 57.5 (≈ 19.9 µg/mL) | – | – | – | – | 145 (≈ 49.9 µg/mL) | – | – | – | – | – | COc1ccc2[nH]c([S+]([O-])Cc3ncc(C)c(OC)c3C)nc2c1 (stereo not given) [OMEPRAZOLE] |
| 70.8 (≈ 20.2 µg/mL) | 28.2 (≈ 8.04 µg/mL) | 43.7 (≈ 12.5 µg/mL) | 70.8 (≈ 20.2 µg/mL) | – | – | – | – | 14.1 (≈ 4.03 µg/mL) | – | – | – | – | – | O=C(/C=C/C=C/c1ccc2c(c1)OCO2)N1CCCCC1 [PIPERINE] |
| 5750 (≈ 708 µg/mL) | 5370 (≈ 661 µg/mL) | 5620 (≈ 692 µg/mL) | 7940 (≈ 978 µg/mL) | – | – | – | – | – | – | – | – | – | – | NC(=O)c1cnccn1 [PYRAZINAMIDE] |
| 0.603 (≈ 0.504 µg/mL) | 1.2 (≈ 1.01 µg/mL) | 0.603 (≈ 0.504 µg/mL) | 0.603 (≈ 0.504 µg/mL) | – | – | – | – | – | – | – | – | – | – | CC[C@H]1OC(=O)[C@H](C)[C@@H](O[C@H]2C[C@@](C)(OC)[C@@H](O)[C@H](C)O2)[C@H](C)[C@@H](O[C@@H]2O[C@H](C)C[C@H](N(C)C)[C@H]2O)[C@](C)(O)C[C@@H](C)/C(=N\OCOCCOC)[C@H](C)[C@@H](O)[C@]1(C)O [ROXITHROMYCIN] |
| 0.851 (≈ 0.495 µg/mL) | 0.851 (≈ 0.495 µg/mL) | 0.851 (≈ 0.495 µg/mL) | 0.851 (≈ 0.495 µg/mL) | – | – | – | – | – | – | – | – | – | – | [H]/N=C(/N)N[C@H]1[C@H](O)[C@@H](O)[C@H](O[C@@H]2O[C@@H](C)[C@](O)(C=O)[C@H]2O[C@@H]2O[C@@H](CO)[C@H](O)[C@@H](O)[C@@H]2NC)[C@@H](N/C(N)=N\[H])[C@@H]1O [STREPTOMYCIN] |
| 245 | 0.302 | 245 | 1.51 | 229 | 0.676 | 155 | 0.617 | – | – | – | – | – | – | CN(C/C=C/C#CC(C)(C)C)Cc1cccc2ccccc12.Cl [TERBINAFINE HYDROCHLORIDE] |
| 324 (≈ 80 µg/mL) | 603 (≈ 149 µg/mL) | 162 (≈ 40.1 µg/mL) | 324 (≈ 80 µg/mL) | – | – | – | – | – | – | – | – | – | – | CCS(=O)(=O)CCn1c([N+](=O)[O-])cnc1C [TINIDAZOLE] |
